Drawing on BindingDB's records for PubMed 10779381 (University of Ferrara, 2000), this text covers Ki for four molecules.

Values joined by “and” are separate entries in the source; they are usually repeats but may differ in a detail not shown here. Identical values can stand only once.

One assay addresses T1, Adenosine receptor A3 (Homo sapiens, UniProt P0DMS8).
T1 sequence (P0DMS8 whole entry): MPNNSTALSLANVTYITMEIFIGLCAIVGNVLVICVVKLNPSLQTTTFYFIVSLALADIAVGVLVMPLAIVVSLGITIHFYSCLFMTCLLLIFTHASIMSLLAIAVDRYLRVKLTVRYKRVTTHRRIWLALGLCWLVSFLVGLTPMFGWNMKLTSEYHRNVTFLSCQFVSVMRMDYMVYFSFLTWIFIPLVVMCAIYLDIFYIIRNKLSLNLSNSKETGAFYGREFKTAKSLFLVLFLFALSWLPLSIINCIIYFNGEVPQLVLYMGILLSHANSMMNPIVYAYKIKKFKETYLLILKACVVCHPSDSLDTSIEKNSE

The target of the next assay is T2, Adenosine receptor A1 (Rattus norvegicus, UniProt P25099).
T2 sequence (P25099 whole entry): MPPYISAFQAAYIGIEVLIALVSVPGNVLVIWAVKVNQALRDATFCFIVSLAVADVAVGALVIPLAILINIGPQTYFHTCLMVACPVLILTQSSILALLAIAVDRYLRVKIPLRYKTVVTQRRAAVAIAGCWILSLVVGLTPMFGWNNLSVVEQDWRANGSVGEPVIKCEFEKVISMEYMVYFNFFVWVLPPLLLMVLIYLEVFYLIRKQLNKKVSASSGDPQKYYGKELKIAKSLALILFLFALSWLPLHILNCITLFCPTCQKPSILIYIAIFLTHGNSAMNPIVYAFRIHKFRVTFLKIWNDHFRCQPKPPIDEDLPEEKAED

As usually defined, the Ki is a dissociation constant, usually derived from enzyme kinetics or from competition with a known ligand. Low values mean tighter binding, high ones weaker binding. With `Nc1nc2ccc(Cl)cc2c2nc(-c3ccco3)nn12`, the Ki on Adenosine receptor A3 was 90 nM and 65 nM.

For `Nc1nc2c(cnn2CCc2ccccc2)c2nc(-c3ccco3)nn12`, the Ki at Adenosine receptor A3 was over 10000 nM.

In the case of `CCCn1cc2c(nc(NC(=O)Nc3cccc(Cl)c3)n3nc(-c4ccco4)nc23)n1` [1-(3-chlorophenyl)-3-[2-(furan-2-yl)-8-propyl-8H-pyrazolo[4,3-e][1,2,4]triazolo[1,5-c]pyrimidin-5-yl]urea], the Ki at Adenosine receptor A3 was 0.48 nM and 0.98 nM.

In the case of `CCCn1cc2c(nc(NC(=O)Nc3ccc(OC)cc3)n3nc(-c4ccco4)nc23)n1` [J1.251.181G], the Ki on Adenosine receptor A1 was over 10000 nM.
